pEC50: −log10 of the molar value.

PAR4, sequence (Q96RI0 18-385): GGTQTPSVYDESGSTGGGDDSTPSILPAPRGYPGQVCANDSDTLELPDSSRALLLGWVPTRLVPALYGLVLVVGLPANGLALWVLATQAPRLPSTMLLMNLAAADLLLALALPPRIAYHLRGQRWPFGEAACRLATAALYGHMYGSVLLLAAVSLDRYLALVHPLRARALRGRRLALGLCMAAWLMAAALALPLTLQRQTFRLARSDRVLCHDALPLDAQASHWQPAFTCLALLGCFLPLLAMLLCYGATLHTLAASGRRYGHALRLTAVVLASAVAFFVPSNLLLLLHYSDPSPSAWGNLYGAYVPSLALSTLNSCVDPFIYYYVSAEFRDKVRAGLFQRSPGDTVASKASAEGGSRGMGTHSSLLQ

In one assay the target is PAR4 (Homo sapiens (Human), UniProt Q96RI0). Briefly: FLIPR assay in PAR4-expressing HEK293 cells (PAR4 antagonist activity, calcium mobilization). The following applies: H-Ala-Phe(4-F)-Pro-Gly-Trp-Leu-Val-Lys-Asn-Gly-NH2-induced calcium mobilization. In kind it is cell-based. The text has this:
The FLIPR assay is an exemplary in vitro assay for measuring the activity of the PAR4 antagonists of the present invention. In this assay, intracellular calcium mobilization is induced in PAR4 expressing cells by a PAR4 agonist and calcium mobilization is monitored. See, e.g., Example A.
HEK293 cells stably expressing PAR4 were generated by a standard method of transfection of human […] cDNA expression vector or by RAGE technology from Athersys Inc. (Cleveland, Ohio) and selected based on PAR4 protein expression of mRNA expression. […] These cells express endogenous PAR1 and can elicit calcium signal upon stimulation with PAR1 agonist peptide.
Counter screens for agonist activity and PAR1 antagonist activity were also performed. Briefly, HEK293 EBNA PAR4 clone 20664.1J cells were plated 24 hrs. prior to experiment in 384 well, Poly-D-Lysine coated, black, clear bottom plates (Greiner Bio-One, Monroe, N.C.). Cells were plated at 20,000 cells/well in […] growth medium and incubated at 37° C. with 5% CO2 overnight. At time of assay, media was replaced with 40 μl 1× Hank's Buffered Saline Solution (HBSS) (with 10 mM HEPES) and 20 μl test compound also diluted in 1×HBSS buffer was added at various concentrations and 0.67% DMSO final concentration on the FDSS for agonist measurement. The cells were then incubated for 30 minutes at room temperature followed by addition of 20 μl of agonist peptide for antagonist measurement on the FDSS.
As indicated above, the FLIPR assay, an in vitro assay, measures the PAR4 antagonist activity of compounds tested as described in Example A. The PRP assay, an in vitro assay, measures the PAR4 antagonist assay of the compounds tested in the presence of plasma proteins and thrombin agonist as described in Example C.
(In general: Calcium assays in cells follow changes in intracellular calcium, usually with a dye or a luminescent sensor.)
In general, pEC50 refers to the EC50 on a negative log10 scale, so that one unit is a factor of ten. Take `COc1cc(OCc2csc(N3CCN(S(=O)(=O)C(C)C)CC3)n2)c2cc(-c3cn4nc(OC)sc4n3)oc2c1` [Example 102, 6-(4-((2-(4-(Isopropylsulfonyl)piperazin-1-yl)thiazol-4-yl)methoxy)-6-methoxybenzofuran-2-yl)-2-methoxyimidazo[2,1-b][1,3,4]thiadiazole]: the negative logarithm of the EC50 (pEC50) was 8.64.

With `COc1cc(OCc2csc(N3CC4(COC4)C3)n2)c2cc(-c3cn4nc(OC)sc4n3)oc2c1` [Example 104, 6-(4-(((6-Methoxy-2-(2-methoxyimidazo[2,1-b][1,3,4]thiadiazol-6-yl)benzofuran-4-yl)oxy)methyl)thiazol-2-yl)-2-oxa-6-azaspiro[3.3]heptane], the negative logarithm of the EC50 (pEC50) is 9.17.

On to `CCc1sc(N2CCOCC2)nc1COc1cc(OC)cc2oc(-c3cn4nc(OC)sc4n3)cc12` [Example 105, 4-(5-Ethyl-4-(((6-methoxy-2-(2-methoxyimidazo[2,1-b][1,3,4]thiadiazol-6-yl)benzofuran-4-yl)oxy)methyl)thiazol-2-yl)morpholine], for which the pEC50 was 9.49.

Consider `COc1cc(OCc2csc(N(C)CCC#N)n2)c2cc(-c3cn4nc(OC)sc4n3)oc2c1` [Example 106, 3-((4-(((6-Methoxy-2-(2-methoxyimidazo[2,1-b][1,3,4]thiadiazol-6-yl)benzofuran-4-yl)oxy)methyl)thiazol-2-yl)(methyl)amino)propanenitrile], for which the pEC50 was 9.01.

For `COC[C@@H]1CCCN1c1nc(COc2cc(OC)cc3oc(-c4cn5nc(OC)sc5n4)cc23)cs1` [Example 107, (S)-2-Methoxy-6-(6-methoxy-4-((2-(2-(methoxymethyl)pyrrolidin-1-yl)thiazol-4-yl)methoxy)benzofuran-2-yl)imidazo[2,1-b][1,3,4]thiadiazole], the negative logarithm of the EC50 (pEC50) is 8.89.

Consider `COc1cc(OCc2csc(Nc3ccc(Br)cc3C)n2)c2cc(-c3cn4nc(OC)sc4n3)oc2c1` [Example 108, N-(4-Bromo-2-methylphenyl)-4-(((6-methoxy-2-(2-methoxyimidazo[2,1-b][1,3,4]thiadiazol-6-yl)benzofuran-4-yl)oxy)methyl)thiazol-2-amine], for which the pEC50 was 8.92.

In the case of `COc1cc(OCc2csc(C3CCN(C(=O)OC(C)(C)C)CC3)n2)c2cc(-c3cn4nc(OC)sc4n3)oc2c1` [Example 109, tert-Butyl 4-(4-(((6-methoxy-2-(2-methoxyimidazo[2,1-b][1,3,4]thiadiazol-6-yl)benzofuran-4-yl)oxy)methyl)thiazol-2-yl)piperidine-1-carboxylate], the negative-log EC50 (pEC50) was 9.16.

`COc1cc(OCc2csc(C3CCN(C(=O)c4ccccc4)CC3)n2)c2cc(-c3cn4nc(OC)sc4n3)oc2c1` [Example 110, (4-(4-(((6-Methoxy-2-(2-methoxyimidazo[2,1-b][1,3,4]thiadiazol-6-yl)benzofuran-4-yl)oxy)methyl)thiazol-2-yl)piperidin-1-yl)(phenyl)methanone]: the negative-log EC50 (pEC50) is 9.11.

In the case of `COc1cc(OCc2csc(C3CCN(S(=O)(=O)C(C)C)CC3)n2)c2cc(-c3cn4nc(OC)sc4n3)oc2c1` [Example 111, 6-(4-((2-(1-(Isopropylsulfonyl)piperidin-4-yl)thiazol-4-yl)methoxy)-6-methoxybenzofuran-2-yl)-2-methoxyimidazo[2,1-b][1,3,4]thiadiazole], the pEC50 was 9.07.

Take `COc1cc(OCc2csc(C3CCN(S(C)(=O)=O)CC3)n2)c2cc(-c3cn4nc(OC)sc4n3)oc2c1` [Example 112, 2-Methoxy-6-(6-methoxy-4-((2-(1-(methylsulfonyl)piperidin-4-yl)thiazol-4-yl)methoxy)benzofuran-2-yl)imidazo[2,1-b][1,3,4]thiadiazole]: the negative-log EC50 (pEC50) was 9.43.

For the compound `COc1cc(OCc2csc(C3CCN(S(=O)(=O)c4ccccc4)CC3)n2)c2cc(-c3cn4nc(OC)sc4n3)oc2c1` [Example 113, 2-Methoxy-6-(6-methoxy-4-((2-(1-(phenylsulfonyl)piperidin-4-yl)thiazol-4-yl)methoxy)benzofuran-2-yl)imidazo[2,1-b][1,3,4]thiadiazole], the pEC50 is 9.37.

In the case of `COc1cc(OCc2csc(C3CCN(S(=O)(=O)C(F)(F)F)CC3)n2)c2cc(-c3cn4nc(OC)sc4n3)oc2c1` [Example 114, 2-Methoxy-6-(6-methoxy-4-((2-(1-((trifluoromethyl)sulfonyl)piperidin-4-yl)thiazol-4-yl)methoxy)benzofuran-2-yl)imidazo[2,1-b][1,3,4]thiadiazole], the pEC50 is 9.31.

Regarding `COc1cc(OCc2csc(-c3ccno3)n2)c2cc(-c3cn4nc(OC)sc4n3)oc2c1` [Example 116, 5-(4-(((6-Methoxy-2-(2-methoxyimidazo[2,1-b][1,3,4]thiadiazol-6-yl)benzofuran-4-yl)oxy)methyl)thiazol-2-yl)isoxazole], the negative-log EC50 (pEC50) was 9.49.

Turning to `COc1cc(OCc2csc(-c3cnco3)n2)c2cc(-c3cn4nc(OC)sc4n3)oc2c1` [Example 117, 5-(4-(((6-methoxy-2-(2-methoxyimidazo[2,1-b][1,3,4]thiadiazol-6-yl)benzofuran-4-yl)oxy)methyl)thiazol-2-yl)oxazole], the pEC50 is 9.37.

Take `COc1cc(OCc2csc(C3(F)CCOCC3)n2)c2cc(-c3cn4nc(OC)sc4n3)oc2c1` [Example 119, 6-(4-((2-(4-Fluorotetrahydro-2H-pyran-4-yl)thiazol-4-yl)methoxy)-6-methoxybenzofuran-2-yl)-2-methoxyimidazo[2,1-b][1,3,4]thiadiazole]: the pEC50 was 9.14.

In the case of `COc1cc(OCc2csc(C3(OC)CCOCC3)n2)c2cc(-c3cn4nc(OC)sc4n3)oc2c1` [Example 120, 2-Methoxy-6-(6-methoxy-4-((2-(4-methoxytetrahydro-2H-pyran-4-yl)thiazol-4-yl)methoxy)benzofuran-2-yl)imidazo[2,1-b][1,3,4]thiadiazole], the pEC50 is 9.35.

For `COc1cc(OCc2csc(C3(F)CC(C)OC(C)C3)n2)c2cc(-c3cn4nc(OC)sc4n3)oc2c1` (stereo not drawn) [Example 122, 6-(4-((2-(4-Fluoro-2,6-dimethyltetrahydro-2H-pyran-4-yl)thiazol-4-yl)methoxy)-6-methoxybenzofuran-2-yl)-2-methoxy-imidazo[2,1-b][1,3,4]thiadiazole], the negative-log EC50 (pEC50) was 9.14.

`COc1cc(OCc2csc(C3(O)CCOC3)n2)c2cc(-c3cn4nc(OC)sc4n3)oc2c1` (stereo not drawn) [Example 123, 3-(4-(((6-Methoxy-2-(2-methoxyimidazo[2,1-b][1,3,4]thiadiazol-6-yl)benzofuran-4-yl)oxy)methyl)thiazol-2-yl)tetrahydrofuran-3-ol]: the negative logarithm of the EC50 (pEC50) was 9.30.

For the compound `COc1cc(OCc2nc(C3(O)CCOCC3)sc2C)c2cc(-c3cn4nc(OC)sc4n3)oc2c1` [Example 124, 4-(4-(((6-Methoxy-2-(2-methoxyimidazo[2,1-b][1,3,4]thiadiazol-6-yl)benzofuran-4-yl)oxy)methyl)-5-methylthiazol-2-yl)tetrahydro-2H-pyran-4-ol], the negative logarithm of the EC50 (pEC50) is 9.54.

For `COc1cc(OCc2csc(C3(O)CCC(=O)CC3)n2)c2cc(-c3cn4nc(OC)sc4n3)oc2c1` [Example 128, 4-Hydroxy-4-(4-(((6-methoxy-2-(2-methoxyimidazo[2,1-b][1,3,4]thiadiazol-6-yl)benzofuran-4-yl)oxy)methyl)thiazol-2-yl)cyclohexan-one], the negative logarithm of the EC50 (pEC50) is 9.46.

Take `COc1cc(OCc2csc(C3(O)CCN(C(=O)OC(C)(C)C)CC3)n2)c2cc(-c3cn4nc(OC)sc4n3)oc2c1` [Example 129, tert-Butyl 4-hydroxy-4-(4-(((6-methoxy-2-(2-methoxyimidazo[2,1-b][1,3,4]thiadiazol-6-yl)benzofuran-4-yl)oxy)methyl)thiazol-2-yl)piperidine-1-carboxylate]: the pEC50 is 9.02.

As for `COc1cc(OCc2csc(C3(O)CCN(C(=O)c4ccccc4)CC3)n2)c2cc(-c3cn4nc(OC)sc4n3)oc2c1` [Example 130, (4-Hydroxy-4-(4-(((6-methoxy-2-(2-methoxyimidazo[2,1-b][1,3,4]thiadiazol-6-yl)benzofuran-4-yl)oxy)methyl)thiazol-2-yl)piperidin-1-yl)(phenyl)methanone], the negative logarithm of the EC50 (pEC50) is 9.40.

For the compound `COc1cc(OCc2nc(C3(F)CCOCC3)sc2C(F)(F)F)c2cc(-c3cn4nc(OC)sc4n3)oc2c1` [Example 132, 6-(4-((2-(4-Fluorotetrahydro-2H-pyran-4-yl)-5-(trifluoromethyl)thiazol-4-yl)methoxy)-6-methoxybenzofuran-2-yl)-2-methoxyimidazo[2,1-b][1,3,4]thiadiazole], the pEC50 was 8.72.

The same assay, now with this note: H-Ala-Phe(4-F)-[…]NH2-induced calcium mobilization.
As to `COc1cc(OCc2csc(C3=CCC4(CC3)OCCO4)n2)c2cc(-c3cn4nc(OC)sc4n3)oc2c1` [Example 127, 6-(4-((2-(1,4-Dioxaspiro-[4.5]dec-7-en-8-yl)thiazol-4-yl)methoxy)-6-methoxybenzofuran-2-yl)-2-methoxyimidazo[2,1-b][1,3,4]thiadiazole], the pEC50 was 8.80.

The values are drawn from patent US9688695B2, “Imidazothiadiazole and imidazopyrazine derivatives as protease activated receptor 4 (PAR4) inhibitors for treating platelet aggregation” (BRISTOL-MYERS SQUIBB COMPANY, priority 2012, dated 2017).
